We go through one molecule from ChEMBL document CHEMBL4321846, “Discovery of a Potent and Selective Oral Inhibitor of ERK1/2 (AZD0364) That Is Efficacious in Both Monotherapy and Combination Therapy in Models of Nonsmall Cell Lung Cancer (NSCLC)” (J Med Chem, 2019).

The test system of series [1] is RAF proto-oncogene serine/threonine-protein kinase (Homo sapiens), P04049 [Y340D,Y341D]. The series is described as follows: Inhibition of recombinant human GST-tagged c-RAF1 Y340D/Y341D mutant catalytic domain expressed in baculovirus expression system at 1 uM relative to control.
For series [2], the target named is Dual specificity mitogen-activated protein kinase kinase 1 (Homo sapiens) (UniProt Q02750). In words: Inhibition of recombinant full length His-tagged human MEK1 expressed in baculovirus expression system at 1 uM relative to control.
Series [3] has as its target Mitogen-activated protein kinase 15 (Homo sapiens) (UniProt Q8TD08). In words: Binding affinity to recombinant human N-terminal 4xFLAG-tagged/C-terminal His8-fused ERK7 N-terminal domain (M1 to R354 residues) expressed in Sf9 insect cells.
In series [4] the target is Cyclin-dependent kinase 5/CDK5 activator 1 (Homo sapiens, UniProt Q00535). In words: Inhibition of recombinant full length human His-tagged CDK5/p35 expressed in baculovirus expression system.
The target in series [5] is Cyclin-dependent kinase 5 (Homo sapiens) (UniProt Q00535). The series is described as follows: Binding affinity to recombinant human GST-tagged inactive CDK5.
Series [6] concerns the target Cyclin-dependent kinase 2/cyclin E1 (Homo sapiens, UniProt P24941). The series is described as follows: Inhibition of human full length C-terminal His6-tagged Cdk2/human full length N-terminal GST-tagged Cyclin E expressed in baculovirus infected Sf21 insect cells after 1 hr by electromobility shift assay.
Series [7] has as its system Calu-6. In words: Antiproliferative activity against human Calu6 cells expressing KRAS Q61K mutant assessed as growth inhibition. In kind it is functional.
The target in series [8] is T1, CDK2/Cyclin A1 (Homo sapiens) (UniProt P24941+P78396). In words: Binding affinity to recombinant human full length N-terminal GST-tagged CDK2/Cyclin A1 expressed in baculovirus infected Sf9 cells at 1 uM relative to control.
Series [9] deals with T1, CDK2/Cyclin A1 (Homo sapiens). The series is described as follows: Inhibition of recombinant human full length His-tagged CDK2/Cyclin A expressed in baculovirus expression system at 1 uM relative to control.
The subject of series [10] is Calu-6. In words: Antitumor activity against human Calu6 cells expressing KRAS Q61K mutant xenografted in athymic Nude-Foxn1nu mouse assessed as tumor regression at 50 mg/kg, po qd adminstered for 21 days and measured twice per week by caliper method relative to control. In kind it is functional. Background: Xenograft models place foreign cells or tissue in a host animal.

For another series, the system named is Mus musculus. In words: Reduction in phosphorylated RSK level in athymic Nude-Foxn1nu mouse xenografted with human Calu6 cells expressing KRAS Q61K mutant at 25 mg/kg, po qd adminstered for 21 days and measured after 0.5 hrs post dose by Western blot analysis relative to control. In kind it is functional. The conditions noted are these: Calu-6, po.
Series [11] can be described thus: Fraction unbound in rat plasma. In kind it is ADME, cell-free.
The nature of series [12]: Half life in po dosed dog. In kind it is ADME, organism-based, Canis lupus familiaris. The conditions noted are these: in vivo.
Series [13] has as its target T2, Mitogen-activated protein kinase 1 (Homo sapiens, UniProt P28482).
For series [14], the target named is T2, Mitogen-activated protein kinase 1. This is another data set of the same source.

T2 sequence (P28482 whole entry): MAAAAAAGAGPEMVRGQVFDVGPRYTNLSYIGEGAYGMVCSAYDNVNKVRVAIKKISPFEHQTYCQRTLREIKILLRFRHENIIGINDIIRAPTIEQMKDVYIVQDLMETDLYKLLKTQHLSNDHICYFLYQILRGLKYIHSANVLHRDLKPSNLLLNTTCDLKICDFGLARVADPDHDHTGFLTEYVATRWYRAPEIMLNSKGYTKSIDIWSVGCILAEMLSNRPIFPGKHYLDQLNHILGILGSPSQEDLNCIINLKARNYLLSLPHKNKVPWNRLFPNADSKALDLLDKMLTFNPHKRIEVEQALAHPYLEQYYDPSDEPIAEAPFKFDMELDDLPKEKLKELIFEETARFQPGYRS
Sequence of Cyclin-dependent kinase 5 (Homo sapiens) (Q00535 whole entry, looked up): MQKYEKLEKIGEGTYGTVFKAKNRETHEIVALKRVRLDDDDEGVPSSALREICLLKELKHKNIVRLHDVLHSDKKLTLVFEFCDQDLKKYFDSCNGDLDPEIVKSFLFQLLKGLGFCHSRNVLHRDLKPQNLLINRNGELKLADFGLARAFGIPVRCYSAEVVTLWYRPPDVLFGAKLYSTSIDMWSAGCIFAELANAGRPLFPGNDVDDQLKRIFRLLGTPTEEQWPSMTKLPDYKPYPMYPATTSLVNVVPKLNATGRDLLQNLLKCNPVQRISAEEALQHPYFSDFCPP
Sequence of Cyclin-dependent kinase 5/CDK5 activator 1 (Q00535 whole entry): as the sequence (Q00535 whole entry, looked up) above
Sequence of Cyclin-dependent kinase 5/CDK5 activator 1 (Q15078 whole entry, further chain): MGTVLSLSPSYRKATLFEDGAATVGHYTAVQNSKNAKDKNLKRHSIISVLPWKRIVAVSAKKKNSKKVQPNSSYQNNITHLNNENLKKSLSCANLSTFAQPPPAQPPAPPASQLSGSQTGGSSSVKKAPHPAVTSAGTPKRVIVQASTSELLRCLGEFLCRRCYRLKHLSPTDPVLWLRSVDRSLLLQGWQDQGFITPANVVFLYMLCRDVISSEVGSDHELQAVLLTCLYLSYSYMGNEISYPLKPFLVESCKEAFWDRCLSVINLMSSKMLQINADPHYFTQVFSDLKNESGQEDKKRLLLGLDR
Sequence of RAF proto-oncogene serine/threonine-protein kinase (Homo sapiens), P04049 [Y340D,Y341D] (P04049 whole entry Y340D/Y341D, the tested form may be a part): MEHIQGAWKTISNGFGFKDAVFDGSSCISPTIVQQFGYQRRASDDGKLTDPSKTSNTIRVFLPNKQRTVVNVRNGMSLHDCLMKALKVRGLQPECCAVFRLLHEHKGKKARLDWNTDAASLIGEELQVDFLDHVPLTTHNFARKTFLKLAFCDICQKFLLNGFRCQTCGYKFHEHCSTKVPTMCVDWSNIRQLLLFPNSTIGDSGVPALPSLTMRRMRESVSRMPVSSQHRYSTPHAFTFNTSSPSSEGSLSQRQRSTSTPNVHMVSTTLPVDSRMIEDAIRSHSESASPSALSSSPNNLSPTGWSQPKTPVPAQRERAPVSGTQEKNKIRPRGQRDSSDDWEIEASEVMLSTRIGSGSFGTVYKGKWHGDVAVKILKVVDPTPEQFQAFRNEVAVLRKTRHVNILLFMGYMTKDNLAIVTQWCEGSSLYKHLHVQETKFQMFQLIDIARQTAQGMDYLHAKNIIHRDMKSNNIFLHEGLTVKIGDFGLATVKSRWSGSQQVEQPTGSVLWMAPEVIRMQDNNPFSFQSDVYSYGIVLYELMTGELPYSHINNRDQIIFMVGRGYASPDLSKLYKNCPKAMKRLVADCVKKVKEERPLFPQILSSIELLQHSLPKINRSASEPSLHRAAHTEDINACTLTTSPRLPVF
Sequence of Mitogen-activated protein kinase 15 (Homo sapiens) (Q8TD08 whole entry, the tested form may be a part): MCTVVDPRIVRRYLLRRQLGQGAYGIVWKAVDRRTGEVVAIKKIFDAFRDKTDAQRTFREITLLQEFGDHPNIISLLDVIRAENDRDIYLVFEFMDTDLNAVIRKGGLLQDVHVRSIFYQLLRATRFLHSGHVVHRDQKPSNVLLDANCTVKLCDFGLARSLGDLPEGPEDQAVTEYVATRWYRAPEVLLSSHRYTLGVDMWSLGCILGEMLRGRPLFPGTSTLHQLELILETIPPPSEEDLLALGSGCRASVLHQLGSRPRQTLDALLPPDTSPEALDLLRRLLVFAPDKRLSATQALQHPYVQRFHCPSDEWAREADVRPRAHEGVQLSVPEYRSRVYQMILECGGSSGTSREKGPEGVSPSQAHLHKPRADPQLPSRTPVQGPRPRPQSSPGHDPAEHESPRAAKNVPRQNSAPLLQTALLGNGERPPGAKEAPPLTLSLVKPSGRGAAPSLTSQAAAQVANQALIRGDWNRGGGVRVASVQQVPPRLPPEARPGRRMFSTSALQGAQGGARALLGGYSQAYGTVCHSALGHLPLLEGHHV
Sequence of Dual specificity mitogen-activated protein kinase kinase 1 (Homo sapiens) (Q02750 whole entry, the tested form may be a part): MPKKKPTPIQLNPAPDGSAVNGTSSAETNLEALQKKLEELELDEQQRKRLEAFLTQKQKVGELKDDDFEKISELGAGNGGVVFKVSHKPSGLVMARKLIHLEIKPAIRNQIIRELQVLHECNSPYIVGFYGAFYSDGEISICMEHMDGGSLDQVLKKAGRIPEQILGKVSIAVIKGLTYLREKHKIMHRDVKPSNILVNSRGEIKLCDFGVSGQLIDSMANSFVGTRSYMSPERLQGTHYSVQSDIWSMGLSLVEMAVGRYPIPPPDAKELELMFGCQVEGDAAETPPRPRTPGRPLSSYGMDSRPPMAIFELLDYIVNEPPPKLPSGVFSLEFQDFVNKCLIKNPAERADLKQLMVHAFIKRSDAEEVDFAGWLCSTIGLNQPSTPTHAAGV

Turning to `COC[C@H]1Cn2cc(-c3nc(Nc4ccnn4C)ncc3C)nc2C(=O)N1Cc1ccc(F)c(F)c1` [TIZATERKIB], the inhibition in series [1] is -3.5%; in [2] it was -2.5%; in [9], 87%. Moreover, the Activity came to 0.03 µM in series [3], 1.9 µM in [5], 91% in [8] and 49% with Calu-6 [10]. Further, the IC50 stood at 300 nM in series [4] and 1000 nM in [6]. Further, in the series with Calu-6 [7], the 50% growth inhibitory concentration (GI50) was determined as 200 nM. In the series on Mus musculus, this molecule displayed an inhibition in vivo at 25 mg/kg of 100%. In addition, the fraction unbound in [11] was determined as 0.21. Also, in series [12], the half-life was 5 h. Further, in series [13], the Kdiss stood at 6 ×10⁻⁵ /s. This molecule also registered a T1/2 in series [14] of 3.23 h.

The inhibition is the drop in the measured response relative to a control, in per cent. By IC50 is commonly meant the concentration that inhibits the measured activity by half. Broadly, the GI50 is the concentration giving 50% growth inhibition. For orientation: inhibition in vivo means the relative decrease from the control value, in per cent. For orientation: fraction unbound means free concentration divided by total concentration. Read a high fraction unbound as weak binding. For orientation: half-life means how long it takes for the measured level to halve. A high value points to slow decline.
